Read-outs that look alike come from different tables or passages of the source. Where no end group is shown, it is not given here. The star is where a group is joined. Farnesyl = CC(C)=CCC/C(C)=C/CC/C(C)=C/C*
Columns and labels:
[1] = molecular target: T1, cysteine protease ICE (interleukin-1β converting enzyme) (Homo sapiens, UniProt P29466); conditions: cited from earlier work
T1 sequence (P29466 120-297 limits assumed): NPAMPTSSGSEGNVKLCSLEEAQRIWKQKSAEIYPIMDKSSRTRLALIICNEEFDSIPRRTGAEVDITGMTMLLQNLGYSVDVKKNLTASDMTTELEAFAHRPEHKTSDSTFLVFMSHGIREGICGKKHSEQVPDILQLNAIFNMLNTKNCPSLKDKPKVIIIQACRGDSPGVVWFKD
T1 sequence (P29466 317-404 limits assumed): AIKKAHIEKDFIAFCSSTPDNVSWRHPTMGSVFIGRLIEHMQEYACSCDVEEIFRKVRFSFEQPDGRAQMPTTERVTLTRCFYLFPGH

[2] = tested on: isoprenylated protein endoprotease; test: Inhibition of the solubilized / partially purified enzyme by non-halomethyl ketone inhibitors; type: biochemical, bovine
[3] = molecular target: T2, cysteine protease apopain (Homo sapiens, UniProt P42574); conditions: cited from earlier work
T2 sequence (P42574 29-175 limits assumed): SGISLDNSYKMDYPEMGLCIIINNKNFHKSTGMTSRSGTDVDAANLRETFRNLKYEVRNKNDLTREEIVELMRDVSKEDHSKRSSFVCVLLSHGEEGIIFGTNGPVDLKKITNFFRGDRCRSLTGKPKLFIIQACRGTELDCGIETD
T2 sequence (P42574 176-277 limits assumed): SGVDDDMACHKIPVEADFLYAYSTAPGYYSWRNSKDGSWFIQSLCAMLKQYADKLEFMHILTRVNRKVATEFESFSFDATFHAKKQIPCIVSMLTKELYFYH

[4] = tested on: second small proteolytic activity, apparent molecular mass approximately 60 kDa; test: Inhibition of the second small peak of proteolytic activity (approximately 60 kDa) after gel filtration; type: biochemical, bovine
Description: These properties of CHAPSO make it ideal, among the detergents tested, for the solubilization of the endoprotease. […] It should be noted that a second small amount of proteolytic activity was also found with an apparent molecular mass of approximately 60 kDa, which amounted to approximately 10% of the major peak, but which chromatographed at a smaller molecular size than the major peak. This smaller peak was not investigate further, for several reasons. Quantitatively, it is not significant. […] It also is no known if the smaller peak of activity i s comprised of an endoproteolytic activity or is simply made up of nonspecific proteases. […] All further studies described here will be relevant to the major solubilized peak of activity.

[5] = tested on: isoprenylated protein endoprotease; test: Inhibition of the isoprenylated protein endoprotease by halomethyl ketones (preincubation, 20-fold dilution, Kitz-Wilson); type: biochemical, bovine; conditions: for Ki: read-out: K1
Protocol: A typical procedure of inhibition is given here to illustrate the details of this procedure. A CHAPSO-solubilized protein preparation (2.5 mg/mL) or a partially […] protein preparation (0.17 mg/mL) was incubated with chloromethyl ketone inhibitors at 37° C. for 30 minutes. Aliquots were removed at timed intervals and diluted with assay buffer E for the solubilized preparation of with assay buffer D for the partially purified protein preparation in 20-fold. The final protein and substrate concentrations were 0.12 mg/mL (or 8.5 μg of partially purified protein preparation per milliliter) and 2.0 μM, respectively, except as otherwise noted; the residual enzyme activity was assayed as described above. TPCK and BFC-CMK were characterized by kinetic measurements. The bimolecular rate constant Kinh /K1 and pseudo-first-order kinetic rate constant Kinh were obtained using the Kitz-Wilson method (Kitz & Wilson, 1962). According to Kitz-Wilson method, the irreversible modification of an enzyme by an active-site directed inhibitor is given by [drawing 9] where K1 =[E]·[I]/[E·I] and -d([E]+[E·I])/dt=Kinh [E·I]. [I] and [E] are inhibitor and enzyme concentrations at a certain time, respectively. Under conditions here [I]>>[Eo ], which is the enzyme concentration at time zero, [I] is constant. Under conditions where the enzyme-inhibitor solution is extensively diluted before the assay, a simplified equation 2 can be obtained as follows: […]
To further establish the specificity of the inactivation process, several commercially available haloketones were studies as putative inactivators of the endoprotease. The structures of these analogs are shown and their activities are shown in Table V. In these studies, the solubilized protein material was preincubated with a chloromethyl ketone inhibitor at 284 μM (unless otherwise noted) for 30 minutes; then 2.5-μL aliquots of the incubated solution were taken and diluted 20-fold for assay of the residual enzyme activity. […] Save for the dipeptide derivatives (ZGGFCMK and ZAPFCMK) derived from TPCK, the other halomethyl ketones tested are virtually inert.
FIG. 16(A) Time-dependent inhibition. 16B Kitz-Wilson plot (the upper panel) for the inhibition of the isoprenylated protein endoprotease by TPCK. The inhibition studies were carried out at 37° C. using the solubilized endoprotease preparation. Aliquote of the inhibitor-enzyme solution were taken at interval times and diluted by a factor of 20, and the enzyme activity was assayed as described in Methods. (B) (the lower panel) the concentration-dependent inhibition of the endoprotease by TPCK. The inhibition studies were carried out at 37° C. The crude CHAPSO-solubilized endoprotease preparations (0.12 mg/mL) were preincubated for 60 min in 50 μL of buffer E in the presence of 284 μM TPCK or TLCK with 6% DMSO and 2% 2-propanol. After the incubation, the reaction solution was diluted by a factor of 20, and the remaining enzyme activity of the inhibitor-enzyme solution was assayed as described in Methods. Data were represented in mean from duplicate runs.

[6] = tested on: protease of bovine liver microsomal membranes (isoprenylated protein endoprotease); test: Inhibition of proteolysis of [3H]-AFC-val-ile-ser by peptides, calf liver microsomes; type: biochemical
Protocol: As expected, the proteolysis of [^3 H]-AFC-val-ile-ser or [^3 H]-(SEQ ID NO: 1) was inhibited by the dipeptide substrate (AFC-val) and by the tripeptide substrate (AFC-val-ile). Incubation of 4 μM substrate along with either 20 μM of the dipeptide or tripeptide led to an approximately 50% diminution in substrate cleavage.

[7] = tested on: protease of bovine liver microsomal membranes (isoprenylated protein endoprotease); test: Proteolysis of N-[3H]acetyl isoprenylated peptide substrates by calf liver microsomal membranes (N-[3H]-AFC formation, HPLC)
[8] = tested on: stereospecific proteolytic enzymatic activity in dog pancreatic microsomes; test: Proteolysis of tetrapeptide substrates by dog pancreatic microsomes; type: biochemical; conditions: extended incubation conditions
Protocol: A similar stereospecific proteolytic enzymatic activity was also found in dog pancreatic microsomes. Under extended incubation conditions, where 54% of the tetrapeptide substrate 1 was cleaved by these microsomes, no proteolysis of D-AFC-val-ile-ser 2 could be detected (<1%).

[9] = tested on: isoprenylated protein endoprotease; conditions: 425 ng partially purified protein preparation in 50 μL
[10] = solubilized endoprotease preparation, 37° C., Kitz-Wilson
[11] = Table 1, same enzyme preparation, average of two determinations ±S.D.
[12] = calf liver microsomal membranes
[13] = former measurement, different microsome preparation from a different animal

For `CC(C)C[C@H](NC(=O)[C@H]1O[C@@H]1C(=O)O)C(=O)NCCCCN=C(N)N` (relative stereo) [E-64, N-[N-(L-3-trans-carboxyoxiran-2-carbonyl)-L-leucyl]agmatine], the “inhibition of ICE (in words)” value [1] is listed as “insensitive”, the “inhibition of the endoprotease (in words)” value ([2]; 0.5 mM) is listed as “insensitive” and the “enzyme activity (%) detergent extract” value ([2]; inhibitor 0.11 mM, control 100) is listed as 113 ± 0%. The “enzyme activity (%) partially purified” value ([2]; inhibitor 0.5 mM, control 100) was 103 ± 4% and the “inhibition of apopain (in words)” value [3] was “not”.

In the case of `c1cnc2c(c1)ccc1cccnc12` [1,10-.phi., N,N'-phenanthroline], the “inhibition of the smaller peak of proteolytic activity (in words)” value [4] is reported as “potently inhibited”, the “inhibition of the endoprotease (in words)” value ([2]; 1 mM) is reported as “not inhibited” and the “effect on the major (primary) solubilized peak of activity (in words)” value ([2]; CHAPSO-solubilized enzyme after gel filtration) is reported as “without effect on the primary peak of activity”. For the same compound, the “enzyme activity (%) detergent extract” value ([2]; inhibitor 1 mM, control 100) was 90 ± 10%.

For `NC(=O)CI` [IAA, iodoacetamide], the “inhibition of ICE (in words)” value [1] is given as “inactivated”, the “inhibition of the endoprotease (in words)” value ([2]; 0.4 mM) is given as “insensitive” and the “inhibition of apopain (in words)” value [3] is given as “inhibited”.

In the case of `Cc1ccc(S(=O)(=O)N[C@@H](Cc2ccccc2)C(=O)CCl)cc1` [TPCK, Nα-tosyl-L-phenylalamine chloromethyl ketone], the “inhibition of ICE (in words)” value [1] is listed as “inactivated”, the “inhibition of apopain (in words)” value [3] is listed as “not” and the “enzyme activity (%)” value ([5]; 284 μM inhibitor, solubilized protein preincubated 30 minutes, diluted 20-fold, control 100) is listed as 43 ± 5%. The “regeneration of enzyme activity after gel filtration chromatography and 24-h dialysis (in words)” value ([5]; enzyme preincubated with TPCK) was “not regenerated”, the Ki [5] was ~1000 µM and the “inhibition / inactivation of the endoprotease (in words)” value ([5]; solubilized endoprotease) was “inhibit the endoprotease well”. The “Kinh (s^-1)” value [5, 10] was “(1.4 ± 0.6) × 10^-3 s^-1”, the “Kinh /K1” value [5, 10] was 1.28 ± 0.1 M⁻¹ s⁻¹ and the Ki [5, 10] was 1100 ± 500 µM.

With “AC-val-ile-ser: tetrapeptide substrate with the farnesyl moiety deleted (Ac-CVIS)” the “inhibition of tetrapeptide substrate processing (in words)” value ([6]; 5-fold excess over tetrapeptide substrate) was “did not interfere with the processing of the substrate”.

With “N-Ac-S-all-trans-farnesyl-L-Cys-L-Val-L-Ile [AFC--Val--Ile (1)]” the “diminution in substrate cleavage” value ([6]; 20 μM peptide, 4 μM [3H]-AFC-val-ile-ser substrate) was “approximately 50%”, the “Vmax” value [7, 11] was 57.7 ± 5 pmol/min/mg and the Km [7, 12] was 9.2 ± 0.21 µM. The Vmax [7, 12] was 58 ± 4.9 pmol/min/mg, the “substrate activity (in words)” value [7, 12] was “substrates for the enzyme” and the Km [7, 13] was 12.6 µM. For the same compound, the Vmax [7, 13] was 65.6 pmol/min/mg.

For “N-[^3 H]-acetyl-S-all-trans-farnesyl-D-Cys-L-Val-L-Ile-L-Ser [D-AFC-val-ile-ser]”, the “tetrapeptide cleaved (proteolysis)” value [8] was < 1% and the “substrate activity (in words)” value [7, 12] was “AFC formation did not occur”.

With “N-[^3 H]acetyl-S-farnesyl-L-cysteinyl-L-valyl-L-isoleucyl-L-methionine [AFC--Val--Ile--Met (9)]” the Km [9] was 0.65 ± 0.08 µM, the Vmax [9] was 1.96±0.07 nmol/(min-mg of protein) and the Km [7, 11] was 2.96 ± 0.35 µM. For the same compound, the “Vmax” value [7, 11] was 126.3 ± 4.7 pmol/min/mg and the “substrate activity (in words)” value [7, 12] was “good substrate”.

In the case of “N-acetyl-S-farnesyl-L-cysteine-L-val-L-ile-L-ser (Ac-C(Farnesyl)VIS) [substrate 1]”, the “tetrapeptide cleaved (proteolysis)” value [8] is reported as 54%, the Km [7, 12] is reported as 4.8 ± 0.6 µM and the Vmax [7, 12] is reported as 0.236±0.008 nmol/min/mg protein. For the same compound, the “substrate activity (in words)” value [7, 12] was “substrates for the enzyme”.
